# Laboratory results as given in patent publication US12077503B2, “Substituted cyclic amides and their use as herbicides” (FMC CORPORATION, priority 2015, dated 2024).
# Legend:
# Assay in all cases: Test E preemergence
# Format in all cases: in vivo
# [1] = test system: beggarticks (hairy beggarticks, Bidens pilosa); conditions: scale 0 to 100
# Outline: (§1)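 Seeds sown in silt loam treated preemergence, or plants 2 to 18 cm tall in peat-based potting medium treated postemergence, with test chemical in a non-phytotoxic solvent mixture containing surfactant. Kept in greenhouse 14 to 21 d, then visually rated against controls on a 0–100 scale (0 no effect, 100 complete control).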
# [2] = test system: foxtail, green (green foxtail, Setaria viridis); conditions: scale 0 to 100
# Outline: as §1
# [3] = test system: velvetleaf (Abutilon theophrasti); conditions: scale 0 to 100
# Outline: as §1
# [4] = test system: horseweed (Conyza canadensis); conditions: 31 g ai/ha, scale 0 to 100
# Outline: as §1
# [5] = test system: goosegrass (Eleusine indica); conditions: scale 0 to 100
# Outline: as §1
# soybean (Glycine max) = conditions: scale 0 to 100
# Outline: as §1
# [6] = test system: field bindweed (Convolvulus arvensis); conditions: scale 0 to 100
# Outline: as §1
# [7] = test system: arrowleaf Sida (Sida rhombifolia); conditions: scale 0 to 100
# Outline: as §1
# [8] = test system: sandbur (southern sandbur, Cenchrus echinatus); conditions: scale 0 to 100
# Outline: as §1
# [9] = test system: barnyardgrass (Echinochloa crus-galli); conditions: scale 0 to 100
# Outline: as §1
# [10] = test system: crabgrass, Brazil (Brazilian crabgrass, Digitaria horizontalis); conditions: scale 0 to 100
# Outline: as §1
# [11] = test system: waterhemp (common waterhemp, Amaranthus rudis); conditions: scale 0 to 100
# Outline: as §1
# [12] = test system: foxtail, giant (giant foxtail, Setaria faberii); conditions: scale 0 to 100
# Outline: as §1
# [13] = test system: nightshade (eastern black nightshade, Solanum ptycanthum); conditions: scale 0 to 100
# Outline: as §1
# corn (Zea mays) = conditions: scale 0 to 100
# Outline: as §1
# [14] = test system: ryegrass, Italian (Italian ryegrass, Lolium multiflorum); conditions: scale 0 to 100
# Outline: as §1
# Kochia (Kochia scoparia) = conditions: scale 0 to 100
# Outline: as §1
# [15] = test system: nutsedge, yellow (yellow nutsedge, Cyperus esculentus); conditions: scale 0 to 100
# Outline: as §1
# [16] = test system: crabgrass, large (large crabgrass, Digitaria sangumnalis); conditions: scale 0 to 100
# Outline: as §1
# [17] = test system: surinam grass (Brachiaria decumbens); conditions: scale 0 to 100
# Outline: as §1
# [18] = test system: Panicum, fall (fall Panicum, Panicum dichotomiflorum); conditions: scale 0 to 100
# Outline: as §1
smiles,measurement,setting,value
CN1CC(c2cccc(C(F)(F)F)c2)C(C(=O)Nc2ccccc2S(C)(=O)=O)C1=O (stereo not drawn) [Compound 637],Plant response rating: Beggarticks,[1]; 31 g ai/ha,0
same,Plant response rating: Beggarticks,[1]; 62 g ai/ha,0
same,Plant response rating: Beggarticks,[1]; 125 g ai/ha,0
same,Plant response rating: Beggarticks,[1]; 250 g ai/ha,0
same,"Plant response rating: Foxtail, Green",[2]; 31 g ai/ha,65
same,"Plant response rating: Foxtail, Green",[2]; 62 g ai/ha,75
same,"Plant response rating: Foxtail, Green",[2]; 125 g ai/ha,95
same,"Plant response rating: Foxtail, Green",[2]; 250 g ai/ha,98
same,Plant response rating: Velvetleaf,[3]; 31 g ai/ha,0
same,Plant response rating: Velvetleaf,[3]; 62 g ai/ha,0
same,Plant response rating: Velvetleaf,[3]; 125 g ai/ha,30
same,Plant response rating: Velvetleaf,[3]; 250 g ai/ha,35
same,Plant response rating: Horseweed,[4],0
same,Plant response rating: Goosegrass,[5]; 31 g ai/ha,0
same,Plant response rating: Goosegrass,[5]; 62 g ai/ha,0
same,Plant response rating: Goosegrass,[5]; 125 g ai/ha,65
same,Plant response rating: Goosegrass,[5]; 250 g ai/ha,90
same,Plant response rating: Soybean,soybean (Glycine max); 31 g ai/ha,0
same,Plant response rating: Soybean,soybean (Glycine max); 62 g ai/ha,10
same,Plant response rating: Soybean,soybean (Glycine max); 125 g ai/ha,25
same,Plant response rating: Soybean,soybean (Glycine max); 250 g ai/ha,35
same,Plant response rating: Field Bindweed,[6]; 31 g ai/ha,0
same,Plant response rating: Field Bindweed,[6]; 62 g ai/ha,0
same,Plant response rating: Field Bindweed,[6]; 125 g ai/ha,0
same,Plant response rating: Field Bindweed,[6]; 250 g ai/ha,35
same,Plant response rating: Arrowleaf Sida,[7]; 31 g ai/ha,0
same,Plant response rating: Arrowleaf Sida,[7]; 62 g ai/ha,0
same,Plant response rating: Arrowleaf Sida,[7]; 125 g ai/ha,0
same,Plant response rating: Arrowleaf Sida,[7]; 250 g ai/ha,0
same,Plant response rating: Sandbur,[8]; 31 g ai/ha,0
same,Plant response rating: Sandbur,[8]; 62 g ai/ha,35
same,Plant response rating: Sandbur,[8]; 125 g ai/ha,90
same,Plant response rating: Sandbur,[8]; 250 g ai/ha,90
same,Plant response rating: Barnyardgrass,[9]; 31 g ai/ha,85
same,Plant response rating: Barnyardgrass,[9]; 62 g ai/ha,70
same,Plant response rating: Barnyardgrass,[9]; 125 g ai/ha,80
same,Plant response rating: Barnyardgrass,[9]; 250 g ai/ha,95
same,"Plant response rating: Crabgrass, Brazil",[10]; 31 g ai/ha,75
same,"Plant response rating: Crabgrass, Brazil",[10]; 62 g ai/ha,85
same,"Plant response rating: Crabgrass, Brazil",[10]; 125 g ai/ha,98
same,"Plant response rating: Crabgrass, Brazil",[10]; 250 g ai/ha,95
same,Plant response rating: Waterhemp,[11]; 31 g ai/ha,50
same,Plant response rating: Waterhemp,[11]; 62 g ai/ha,40
same,Plant response rating: Waterhemp,[11]; 125 g ai/ha,65
same,Plant response rating: Waterhemp,[11]; 250 g ai/ha,85
same,"Plant response rating: Foxtail, Giant",[12]; 31 g ai/ha,75
same,"Plant response rating: Foxtail, Giant",[12]; 62 g ai/ha,95
same,"Plant response rating: Foxtail, Giant",[12]; 125 g ai/ha,98
same,"Plant response rating: Foxtail, Giant",[12]; 250 g ai/ha,98
same,Plant response rating: Nightshade,[13]; 31 g ai/ha,0
same,Plant response rating: Nightshade,[13]; 62 g ai/ha,15
same,Plant response rating: Nightshade,[13]; 125 g ai/ha,25
same,Plant response rating: Nightshade,[13]; 250 g ai/ha,40
same,Plant response rating: Corn,corn (Zea mays); 31 g ai/ha,0
same,Plant response rating: Corn,corn (Zea mays); 62 g ai/ha,0
same,Plant response rating: Corn,corn (Zea mays); 125 g ai/ha,35
same,Plant response rating: Corn,corn (Zea mays); 250 g ai/ha,70
same,"Plant response rating: Ryegrass, Italian",[14]; 31 g ai/ha,0
same,"Plant response rating: Ryegrass, Italian",[14]; 62 g ai/ha,50
same,"Plant response rating: Ryegrass, Italian",[14]; 125 g ai/ha,35
same,"Plant response rating: Ryegrass, Italian",[14]; 250 g ai/ha,35
same,Plant response rating: Kochia,Kochia (Kochia scoparia); 31 g ai/ha,0
same,Plant response rating: Kochia,Kochia (Kochia scoparia); 62 g ai/ha,40
same,Plant response rating: Kochia,Kochia (Kochia scoparia); 125 g ai/ha,90
same,Plant response rating: Kochia,Kochia (Kochia scoparia); 250 g ai/ha,90
same,"Plant response rating: Nutsedge, Yellow",[15]; 31 g ai/ha,0
same,"Plant response rating: Nutsedge, Yellow",[15]; 62 g ai/ha,0
same,"Plant response rating: Nutsedge, Yellow",[15]; 125 g ai/ha,0
same,"Plant response rating: Nutsedge, Yellow",[15]; 250 g ai/ha,35
same,"Plant response rating: Crabgrass, Large",[16]; 31 g ai/ha,90
same,"Plant response rating: Crabgrass, Large",[16]; 62 g ai/ha,95
same,"Plant response rating: Crabgrass, Large",[16]; 125 g ai/ha,98
same,"Plant response rating: Crabgrass, Large",[16]; 250 g ai/ha,98
same,Plant response rating: Surinam Grass,[17]; 31 g ai/ha,10
same,Plant response rating: Surinam Grass,[17]; 62 g ai/ha,50
same,Plant response rating: Surinam Grass,[17]; 125 g ai/ha,75
same,Plant response rating: Surinam Grass,[17]; 250 g ai/ha,90
same,"Plant response rating: Panicum, Fall",[18]; 31 g ai/ha,0
same,"Plant response rating: Panicum, Fall",[18]; 62 g ai/ha,35
same,"Plant response rating: Panicum, Fall",[18]; 125 g ai/ha,90
same,"Plant response rating: Panicum, Fall",[18]; 250 g ai/ha,95
